Reference: patent US11191820B2, “Method for inducing early T memory response with short peptides anti-tumor vaccine” (OSE IMMUNOTHERAPEUTICS, priority 2015, dated 2021)
Where two headings read alike, the source gives them in different places.

What was measured:
advanced NSCLC = details: cited from earlier work
central memory T cells [1] = test: Central memory T cell cultured ELISPOT, phase 2 trial in advanced NSCLC; assay type: in vivo, human
How it was run: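 Patient PBMC were pre-stimulated for 10 days with 10 μg/ml peptide plus rIL2 (10 U/ml, days 1, 4, 7), then replated at 5×10^4/well with irradiated autologous PBMC and 10 μg/ml peptide, and SFC were counted. A response was positive if >5 SFC above, and > mean+2 SD of, the irrelevant HBV epitope, and twofold the pre-vaccination response plus 2 SD.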

central memory T cells [2] = test: Cultured IFN-γ ELISPOT after 10-day in vitro stimulation of PBMC, phase 1/2 colon cancer trial of OSE-2101; assay type: in vivo, human; design: key to net SFC of vaccine positive CTL responses: —, indicates SFC response did not meet criteria and vaccine response was negative; details: for Mean SFC: 10 colon patients
How it was run: (§1)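 Patient PBMC (pre-treatment, Week 9, Week 18, after s.c. dosing every 3 weeks) were stimulated 10 days with 10 μg/ml of each epitope plus rIL-2 10 U/ml on days 1, 4 and 7. Cells were then tested 20 h with irradiated autologous PBMC and 10 μg/ml vaccine or wild-type peptide. Net SFC per 5×10^4 cells, irrelevant HBV peptide subtracted.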

central memory T cells [3] = test: Cultured IFN-γ ELISPOT after 10-day in vitro stimulation of PBMC, phase 1/2 NSCLC trial of OSE-2101; assay type: in vivo, human; design: key to net SFC of vaccine positive CTL responses: —, indicates SFC response did not meet criteria and vaccine response was negative; details: for Mean SFC / No. Positive Responses: 6 NSCLC patients
How it was run: as §1

Compound: Nc1nc2[nH]cc(CCc3ccc(C(=O)N[C@@H](CCC(=O)O)C(=O)O)cc3)c2c(=O)[nH]1 [pemetrexed]
- median PFS (advanced NSCLC; phase 3, second line NSCLC (Bareschino 2011)): 2.9 months

Compound: C#Cc1cccc(Nc2ncnc3cc(OCCOC)c(OCCOC)cc23)c1 [Erlotinib]
- Progression-Free Survival (PFS) (advanced NSCLC; advanced NSCLC after at least first line failure (Shepherd 2005)): 2.2 months

Compound: nivolumab
- median PFS (advanced NSCLC; phase 3 study in squamous NSCLC (Brahmer 2015)): 3.5 months

Compound: YLSGADLNL [CEA.605D6 A]
- % of patients with positive CTL/central memory T cell response (central memory T cells [1]; phase 2, month 9): 14%
- patients with positive CTL/central memory T cell response / patients tested (central memory T cells [1]; phase 2, month 9): 1/7
- % of patients with positive CTL/central memory T cell response (central memory T cells [1]; phase 2, month 12): 25%
- patients with positive CTL/central memory T cell response / patients tested (central memory T cells [1]; phase 2, month 12): 1/4
- % of patients with positive CTL/central memory T cell response (central memory T cells [1]; phase 2, week 9): 27%
- patients with positive CTL/central memory T cell response / patients tested (central memory T cells [1]; phase 2, week 9): 9/33
- % of patients with positive CTL/central memory T cell response (central memory T cells [1]; phase 2, week 18): 31%
- patients with positive CTL/central memory T cell response / patients tested (central memory T cells [1]; phase 2, week 18): 10/32
- % of patients with positive CTL/central memory T cell response (central memory T cells [1]; phase 2, week 30): 35%
- patients with positive CTL/central memory T cell response / patients tested (central memory T cells [1]; phase 2, week 30): 8/23
- Mean SFC (central memory T cells [2]; Week 9): 84.2 SFC per 50,000 cells
- Mean SFC (central memory T cells [2]; Week 18): 283.3 SFC per 50,000 cells
- net SFC of vaccine positive CTL responses (central memory T cells [2]; colon patient 551, Week 9): —
- net SFC of vaccine positive CTL responses (central memory T cells [2]; colon patient 551, Week 18): —
- net SFC of vaccine positive CTL responses (central memory T cells [2]; colon patient 601, Week 9): 88.3 SFC per 50,000 cells
- net SFC of vaccine positive CTL responses (central memory T cells [2]; colon patient 601, Week 18): —
- net SFC of vaccine positive CTL responses (central memory T cells [2]; colon patient 602, Week 9): —
- net SFC of vaccine positive CTL responses (central memory T cells [2]; colon patient 602, Week 18): —
- net SFC of vaccine positive CTL responses (central memory T cells [2]; colon patient 603, Week 9): 114.7 SFC per 50,000 cells
- net SFC of vaccine positive CTL responses (central memory T cells [2]; colon patient 603, Week 18): —
- net SFC of vaccine positive CTL responses (central memory T cells [2]; colon patient 604, Week 9): 70.0 SFC per 50,000 cells
- net SFC of vaccine positive CTL responses (central memory T cells [2]; colon patient 604, Week 18): 413.3 SFC per 50,000 cells
- net SFC of vaccine positive CTL responses (central memory T cells [2]; colon patient 605, Week 9): —
- net SFC of vaccine positive CTL responses (central memory T cells [2]; colon patient 605, Week 18): —
- net SFC of vaccine positive CTL responses (central memory T cells [2]; colon patient 606, Week 9): —
- net SFC of vaccine positive CTL responses (central memory T cells [2]; colon patient 606, Week 18): —
- net SFC of vaccine positive CTL responses (central memory T cells [2]; colon patient 607, Week 9): 72.7 SFC per 50,000 cells
- net SFC of vaccine positive CTL responses (central memory T cells [2]; colon patient 607, Week 18): 414.7 SFC per 50,000 cells
- net SFC of vaccine positive CTL responses (central memory T cells [2]; colon patient 608, Week 9): —
- net SFC of vaccine positive CTL responses (central memory T cells [2]; colon patient 608, Week 18): —
- net SFC of vaccine positive CTL responses (central memory T cells [2]; colon patient 609, Week 9): 75.3 SFC per 50,000 cells
- net SFC of vaccine positive CTL responses (central memory T cells [2]; colon patient 609, Week 18): 22.0 SFC per 50,000 cells
- Mean SFC (central memory T cells [3]; Week 9): 20.7 SFC per 50,000 cells
- No. Positive Responses (central memory T cells [3]; Week 9): 1
- Mean SFC (central memory T cells [3]; Week 18): 137.5 SFC per 50,000 cells
- No. Positive Responses (central memory T cells [3]; Week 18): 2
- net SFC of vaccine positive CTL responses (central memory T cells [3]; NSCLC patient 201, Week 9): —
- net SFC of vaccine positive CTL responses (central memory T cells [3]; NSCLC patient 201, Week 18): —
- net SFC of vaccine positive CTL responses (central memory T cells [3]; NSCLC patient 502, Week 9): —
- net SFC of vaccine positive CTL responses (central memory T cells [3]; NSCLC patient 502, Week 18): —
- net SFC of vaccine positive CTL responses (central memory T cells [3]; NSCLC patient 504, Week 9): 20.7 SFC per 50,000 cells
- net SFC of vaccine positive CTL responses (central memory T cells [3]; NSCLC patient 504, Week 18): 214.3 SFC per 50,000 cells
- net SFC of vaccine positive CTL responses (central memory T cells [3]; NSCLC patient 505, Week 9): —
- net SFC of vaccine positive CTL responses (central memory T cells [3]; NSCLC patient 505, Week 18): 60.7 SFC per 50,000 cells
- net SFC of vaccine positive CTL responses (central memory T cells [3]; NSCLC patient 532, Week 9): —
- net SFC of vaccine positive CTL responses (central memory T cells [3]; NSCLC patient 532, Week 18): —
- net SFC of vaccine positive CTL responses (central memory T cells [3]; NSCLC patient 651, Week 9): —
- net SFC of vaccine positive CTL responses (central memory T cells [3]; NSCLC patient 651, Week 18): —

Compound: KVAEIVHFL [MAGE3.112I5 A]
- % of patients with positive CTL/central memory T cell response (central memory T cells [1]; phase 2, month 9): 0%
- patients with positive CTL/central memory T cell response / patients tested (central memory T cells [1]; phase 2, month 9): 0/7
- % of patients with positive CTL/central memory T cell response (central memory T cells [1]; phase 2, month 12): 0%
- patients with positive CTL/central memory T cell response / patients tested (central memory T cells [1]; phase 2, month 12): 0/4
- % of patients with positive CTL/central memory T cell response (central memory T cells [1]; phase 2, week 9): 30%
- patients with positive CTL/central memory T cell response / patients tested (central memory T cells [1]; phase 2, week 9): 10/33
- % of patients with positive CTL/central memory T cell response (central memory T cells [1]; phase 2, week 18): 25%
- patients with positive CTL/central memory T cell response / patients tested (central memory T cells [1]; phase 2, week 18): 8/32
- % of patients with positive CTL/central memory T cell response (central memory T cells [1]; phase 2, week 30): 43%
- patients with positive CTL/central memory T cell response / patients tested (central memory T cells [1]; phase 2, week 30): 10/23
- Mean SFC (central memory T cells [2]; Week 9): 49.2 SFC per 50,000 cells
- Mean SFC (central memory T cells [2]; Week 18): 77.8 SFC per 50,000 cells
- net SFC of vaccine positive CTL responses (central memory T cells [2]; colon patient 551, Week 9): —
- net SFC of vaccine positive CTL responses (central memory T cells [2]; colon patient 551, Week 18): 8.7 SFC per 50,000 cells
- net SFC of vaccine positive CTL responses (central memory T cells [2]; colon patient 601, Week 9): 27.0 SFC per 50,000 cells
- net SFC of vaccine positive CTL responses (central memory T cells [2]; colon patient 601, Week 18): —
- net SFC of vaccine positive CTL responses (central memory T cells [2]; colon patient 602, Week 9): —
- net SFC of vaccine positive CTL responses (central memory T cells [2]; colon patient 602, Week 18): —
- net SFC of vaccine positive CTL responses (central memory T cells [2]; colon patient 603, Week 9): —
- net SFC of vaccine positive CTL responses (central memory T cells [2]; colon patient 603, Week 18): 16.0 SFC per 50,000 cells
- net SFC of vaccine positive CTL responses (central memory T cells [2]; colon patient 604, Week 9): 60.3 SFC per 50,000 cells
- net SFC of vaccine positive CTL responses (central memory T cells [2]; colon patient 604, Week 18): 268.0 SFC per 50,000 cells
- net SFC of vaccine positive CTL responses (central memory T cells [2]; colon patient 605, Week 9): —
- net SFC of vaccine positive CTL responses (central memory T cells [2]; colon patient 605, Week 18): —
- net SFC of vaccine positive CTL responses (central memory T cells [2]; colon patient 606, Week 9): —
- net SFC of vaccine positive CTL responses (central memory T cells [2]; colon patient 606, Week 18): 18.7 SFC per 50,000 cells
- net SFC of vaccine positive CTL responses (central memory T cells [2]; colon patient 607, Week 9): 60.3 SFC per 50,000 cells
- net SFC of vaccine positive CTL responses (central memory T cells [2]; colon patient 607, Week 18): —
- net SFC of vaccine positive CTL responses (central memory T cells [2]; colon patient 608, Week 9): —
- net SFC of vaccine positive CTL responses (central memory T cells [2]; colon patient 608, Week 18): —
- net SFC of vaccine positive CTL responses (central memory T cells [2]; colon patient 609, Week 9): —
- net SFC of vaccine positive CTL responses (central memory T cells [2]; colon patient 609, Week 18): —
- No. Positive Responses (central memory T cells [3]; Week 9): 0
- No. Positive Responses (central memory T cells [3]; Week 18): 0
- net SFC of vaccine positive CTL responses (central memory T cells [3]; NSCLC patient 201, Week 9): —
- net SFC of vaccine positive CTL responses (central memory T cells [3]; NSCLC patient 201, Week 18): —
- net SFC of vaccine positive CTL responses (central memory T cells [3]; NSCLC patient 502, Week 9): —
- net SFC of vaccine positive CTL responses (central memory T cells [3]; NSCLC patient 502, Week 18): —
- net SFC of vaccine positive CTL responses (central memory T cells [3]; NSCLC patient 504, Week 9): —
- net SFC of vaccine positive CTL responses (central memory T cells [3]; NSCLC patient 504, Week 18): —
- net SFC of vaccine positive CTL responses (central memory T cells [3]; NSCLC patient 505, Week 9): —
- net SFC of vaccine positive CTL responses (central memory T cells [3]; NSCLC patient 505, Week 18): —
- net SFC of vaccine positive CTL responses (central memory T cells [3]; NSCLC patient 532, Week 9): —
- net SFC of vaccine positive CTL responses (central memory T cells [3]; NSCLC patient 532, Week 18): —
- net SFC of vaccine positive CTL responses (central memory T cells [3]; NSCLC patient 651, Week 9): —
- net SFC of vaccine positive CTL responses (central memory T cells [3]; NSCLC patient 651, Week 18): —
